Patent US11590107B2, “Methods for treating neurological disorders with α1A-AR partial agonists” (CURASEN THERAPEUTICS, INC., priority 2019, dated 2023)
Read-outs that look alike come from different tables or passages of the source.

What was measured:
[1] = test system: patients with symptomatic neurogenic orthostatic hypotension; assay: Treatment of patients having nOH (Example 1); assay type: in vivo, human; settings: 5 mg oral tablets twice daily, follow-up after one week
Description: Patients between the age of 40 and 80 years old that have been diagnosed with symptomatic orthostatic hypotension due to pure autonomic failure, multiple system atrophy or Parkinson's disease (i.e., PD plus symptoms) present for treatment. At the time of presentation, autonomic function testing is conducted to confirm the diagnosis of autonomic dysfunction including sinus arrhythmia and the Valsalva maneuver.
The patients are given 5 mg dabuzalgron oral tablets and are instructed to take one tablet shortly after waking up in the morning and a second tablet 4-6 hours later each day.
Some patients return for a follow-up visit after one week of treatment. […] In the follow-up visit supine systolic blood pressure (SSBP) may be determined.

α1A-AR receptor [2] = target: T1, α1A-AR receptor (Homo sapiens, UniProt P35348); settings: InsPs accumulation assay; Blue et al., Table 1; cited from earlier work
T1 sequence (P35348 1-466): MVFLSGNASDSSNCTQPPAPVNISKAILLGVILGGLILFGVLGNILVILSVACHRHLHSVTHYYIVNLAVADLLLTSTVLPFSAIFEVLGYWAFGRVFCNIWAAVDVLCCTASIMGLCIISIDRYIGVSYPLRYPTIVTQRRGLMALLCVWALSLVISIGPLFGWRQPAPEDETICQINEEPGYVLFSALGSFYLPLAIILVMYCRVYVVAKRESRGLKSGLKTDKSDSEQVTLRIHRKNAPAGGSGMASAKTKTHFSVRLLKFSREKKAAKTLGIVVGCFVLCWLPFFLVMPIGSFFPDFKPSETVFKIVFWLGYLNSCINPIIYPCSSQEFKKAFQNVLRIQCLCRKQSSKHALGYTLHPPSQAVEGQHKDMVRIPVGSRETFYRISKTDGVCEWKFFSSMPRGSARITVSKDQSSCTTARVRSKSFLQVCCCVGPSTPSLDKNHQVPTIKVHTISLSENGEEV

[3] = test system: patients with central autonomic failure; settings: Ramirez et al. 2014, Shibao et al. 2007; cited from earlier work
α1A-AR receptor [4] = target: T1, α1A-AR receptor; settings: FLIPR assay; Blue et al., Table 1; cited from earlier work

With Cc1c(OCC2=NCCN2)ccc(Cl)c1NS(C)(=O)=O [dabulzagron, N-[6-chloro-3-(4,5-dihydro-1H-imidazol-2-ylmethoxy)-2-methylphenyl] methanesulfonamide] as the molecule, how does the “rise in SSBP compared with patients taking midodrine or droxidopa for nOH” value [1] read?
Its value is “less that that observed in patients taking midodrine or droxidopa”.

What about the “rise in supine systolic blood pressure (SSBP)” value [1] of the same molecule?
The value was “not experience a substantial rise in SSBP”.

What about the “symptoms of nOH as compared to the first visit before treatment” value [1] of the same molecule?
The value was “improve”.

Which “intrinsic activity as compared to noradrenaline” value (α1A-AR receptor [2]) does the source give for Cc1c(OCC2=NCCN2)ccc(Cl)c1NS(C)(=O)=O [RO 115-1240 (dabuzalgron) free base, N-[6-chloro-3-(4,5-dihydro-1H-imidazol-2-ylmethoxy)-2-methylphenyl] methanesulfonamide] here?
Its value is 0.31.

Which “effect on blood pressure” value [3] does the source give for CNCC[C@@H](Oc1ccccc1C)c1ccccc1 [Atomoxetine] here?
The value was “increase blood pressure”.

What does the source list for Cc1c(OCC2=NCCN2)ccc(Cl)c1NS(C)(=O)=O.Cl [RO 115-1240 (dabuzalgron) HCl salt, N-[6-chloro-3-(4,5-dihydro-1H-imidazol-2-ylmethoxy)-2-methylphenyl] methanesulfonamide hydrochloride]?
intrinsic activity as compared to noradrenaline (α1A-AR receptor [2]): 0.27; intrinsic activity as compared to noradrenaline (α1A-AR receptor [4]): 0.51
